Numbered stars: 1 amine (or outer) side, 2 acyl side, 3 side chain; on linkers, the order of the positions; unused ones are H or OH. Bridge positions count the residues as written; N and C are the ends. Square brackets hold non-standard residues; d marks the D form. Peptide text beside a SMILES is read from it. * marks the point of attachment. hPhe(3-Cl-4-CF3) = N[C@@H](CCc1ccc(C(F)(F)F)c(Cl)c1)C(=O)O; hPhe(3-F,4-CF3) = N[C@@H](CCc1ccc(C(F)(F)F)c(F)c1)C(=O)O; X37 = CC(C)(C)NC(=O)COC[C@H](CC(=O)[*:1])N[*:2]; NMePhe(4-Cl) = CN[C@@H](Cc1ccc(Cl)cc1)C(=O)O; NMePhe(2-CN) = CN[C@@H](Cc1ccccc1C#N)C(=O)O; NMePhe(4-Me) = CN[C@@H](Cc1ccc(C)cc1)C(=O)O; NMePhe(3-F) = CN[C@@H](Cc1cccc(F)c1)C(=O)O; hPhe(3-Cl) = N[C@@H](CCc1cccc(Cl)c1)C(=O)O; NMeGly(cPent) = CN[C@H](C(=O)O)C1CCCC1; Phe(3-I) = N[C@@H](Cc1cccc(I)c1)C(=O)O; NMeGly(cBu) = CN[C@H](C(=O)O)C1CCC1; NMeCha = CN[C@@H](CC1CCCCC1)C(=O)O; NMeChg = CN[C@H](C(=O)O)C1CCCCC1; NMeI = CC[C@H](C)[C@H](NC)C(=O)O; NMeD = CN[C@@H](CC(=O)O)C(=O)O; NMeL = CN[C@@H](CC(C)C)C(=O)O; NMeV = CN[C@H](C(=O)O)C(C)C; d(β3hA) = C[C@@H](N)CC(=O)O; NMeS = CN[C@@H](CO)C(=O)O; hSer = N[C@@H](CCO)C(=O)O; NMeA = CN[C@@H](C)C(=O)O; NMeAib = CNC(C)(C)C(=O)O; Nle = CCCC[C@H](N)C(=O)O; Piperidide = C1CCN(*)CC1; Ac5c = NC1(C(=O)O)CCCC1; Aze = O=C(O)[C@@H]1CCN1; Nleu = CC(C)CNCC(=O)O; X113 = Fc1cncc(C*)c1; Sar = CNCC(=O)O

The source of these data is patent publication US20240148821A1, “PHARMACEUTICAL USE OF CYCLIC PEPTIDE COMPOUND” (CHUGAI SEIYAKU KABUSHIKI KAISHA, priority 2021, published 2024).

The test concerns Human pancreatic cancer cell line AsPC-1 (G12D mutation Kras). As to the kind of experiment: AsPC-1 cell growth inhibition (AsPC-1 CGI). In kind it is cell-based. Conditions: read-out: AsPC-1 cell growth inhibition, 50% growth inhibitory concentration (IC50 value); 96 hours, CellTiter-Glo, values classified in ranges. (In ATP-based viability assays light output follows the ATP content of the culture.)
Protocol: Test compounds were serially dilated with dimethyl sulfoxide, and 200 nL was then dispensed to a U-bottom 96-well plate using Labcyte Echo. […] The cell suspension was dispensed to a. plate containing a test compound at 100 μL per well and incubated at 37° C. in a 5% carbon dioxide gas incubator. 96 hours later, 80 μL of CellTiter-Glo (Promega) was added to each well and fluorescence was measured.
Turning to `CC[C@H](C)[C@@H]1NC(=O)[C@H](CC(C)C)N(C)C(=O)C[C@@H](C(=O)N(C)C)N(C)C(=O)[C@H]([C@@H](C)CC)N(C)C(=O)[C@H](C(C)C)NC(=O)[C@@H](C)NC(=O)[C@H](CCc2ccc(C(F)(F)F)c(Cl)c2)NC(=O)CN(C)C(=O)[C@H](Cc2ccc(C)cc2)N(C)C(=O)[C@@H]2CCN2C(=O)[C@H](C)N(C)C1=O` [Compound 915] ([NMeL]I[NMeA][Aze][NMePhe(4-Me)][Sar][hPhe(3-Cl-4-CF3)][dA]V[NMeI][NMeD]-NMe2; lactam N-11), the IC50 was > 500 nM.
`CC[C@H](C)[C@@H]1NC(=O)[C@H](CC(C)C)N(C)C(=O)C[C@@H](C(=O)N2CCCCC2)N(C)C(=O)[C@H](C2CCCCC2)N(C)C(=O)[C@@H](C)NC(=O)[C@@H]2CCCN2C(=O)[C@H](CCc2ccc(C(F)(F)F)c(Cl)c2)NC(=O)CN(C)C(=O)[C@H](CC2CCCCC2)N(C)C(=O)CN(C)C(=O)CN(C)C1=O` [Compound 917] ([NMeL]I[Sar][Sar][NMeCha][Sar][hPhe(3-Cl-4-CF3)]P[dA][NMeChg][NMeD]-Piperidide; lactam N-11): the IC50 was > 500 nM.
Turning to `CC[C@H](C)[C@@H]1NC(=O)[C@H](CC(C)C)N(C)C(=O)C[C@@H](C)NC(=O)[C@H](C2CCCC2)N(C)C(=O)[C@H](C(C)C)NC(=O)[C@@H]2CCCN2C(=O)[C@H](CCc2ccc(C(F)(F)F)c(Cl)c2)NC(=O)CN(C)C(=O)[C@H](Cc2ccc(C)cc2)N(C)C(=O)[C@@H]2CCN2C(=O)[C@H](C)N(C)C1=O` [Compound 933] (cyclo([Aze][NMePhe(4-Me)][Sar][hPhe(3-Cl-4-CF3)]PV[NMeGly(cPent)][d(β3hA)][NMeL]I[NMeA])), the IC50 is > 500 nM.
The figure for `CCCC[C@@H]1NC(=O)[C@H](Cc2cccc(I)c2)NC(=O)CN(C)C(=O)[C@H](Cc2ccc(Cl)cc2)N(C)C(=O)CN(C)C(=O)CN(C)C(=O)[C@H]([C@@H](C)CC)NC(=O)[C@H](CC(C)C)N(C)C(=O)C[C@@H](C(=O)N2CCCCC2)N(C)C(=O)[C@H](CC(C)C)NC(=O)[C@H](Cc2ccc(Cl)cc2)N(C)C1=O` [Compound 934] ([NMeL]I[Sar][Sar][NMePhe(4-Cl)][Sar][Phe(3-I)][Nle][NMePhe(4-Cl)]L[NMeD]-Piperidide; lactam N-11) is > 500 nM; for `CC[C@H](C)[C@@H]1NC(=O)[C@H](CC(C)C)N(C)C(=O)C[C@@H](C(=O)N2CCCCC2)N(C)C(=O)[C@H](C(C)C)N(C)C(=O)C2(CCCC2)NC(=O)[C@@H]2CCCN2C(=O)[C@H](CCc2ccc(C(F)(F)F)c(Cl)c2)NC(=O)CN(C)C(=O)[C@H](Cc2ccccc2C#N)N(C)C(=O)CN(C)C(=O)CN(C)C1=O` [Compound 935] ([NMeL]I[Sar][Sar][NMePhe(2-CN)][Sar][hPhe(3-Cl-4-CF3)]P[Ac5c][NMeV][NMeD]-Piperidide; lactam N-11) it is > 500 nM; for `CC[C@H](C)[C@@H]1NC(=O)[C@H](CC(C)C)N(C)C(=O)C[C@@H](C(=O)N2CCCCC2)N(C)C(=O)[C@H](C2CCCCC2)N(C)C(=O)C2(CCCC2)NC(=O)[C@@H]2CCCN2C(=O)[C@H](CCc2ccc(C(F)(F)F)c(Cl)c2)NC(=O)CN(C)C(=O)[C@H](C2CCC2)N(C)C(=O)CN(C)C(=O)CN(C)C1=O` [Compound 936] ([NMeL]I[Sar][Sar][NMeGly(cBu)][Sar][hPhe(3-Cl-4-CF3)]P[Ac5c][NMeChg][NMeD]-Piperidide; lactam N-11) it is > 500 nM.
Consider `COCC[C@@H]1NC(=O)[C@H](CC(C)C)N(C)C(=O)C[C@@H](C(=O)N2CCCCC2)N(C)C(=O)[C@H](C2CCCCC2)N(C)C(=O)C2(CCCC2)NC(=O)[C@@H]2CCCN2C(=O)[C@H](CCc2ccc(C(F)(F)F)c(Cl)c2)NC(=O)CN(C)C(=O)[C@H](CC2CCCCC2)N(C)C(=O)CN(C)C(=O)CN(C)C1=O` [Compound 941] ([NMeL][hSer](Me)[Sar][Sar][NMeCha][Sar][hPhe(3-Cl-4-CF3)]P[Ac5c][NMeChg][NMeD]-Piperidide; lactam N-11), for which the IC50 is > 500 nM.
As for `CC[C@H](C)[C@@H]1NC(=O)[C@H](C)N(C)C(=O)C[C@@H](C(=O)N2CCCCC2)N(C)C(=O)[C@H](C(C)C)N(C)C(=O)C2(CCCC2)NC(=O)[C@H](Cc2cccc(F)c2)N(C)C(=O)[C@H](CCc2ccc(C(F)(F)F)c(Cl)c2)NC(=O)CN(C)C(=O)[C@H](CC2CCCCC2)N(C)C(=O)CN(C)C(=O)CN(C)C1=O` [Compound 945] ([NMeA]I[Sar][Sar][NMeCha][Sar][hPhe(3-Cl-4-CF3)][NMePhe(3-F)][Ac5c][NMeV][NMeD]-Piperidide; lactam N-11), the IC50 is > 500 nM.
Turning to `CC[C@H](C)[C@@H]1NC(=O)[C@H](CC(C)C)N(C)C(=O)C[C@@H](C(=O)N2CCCCC2)N(C)C(=O)[C@H](C2CCCCC2)N(C)C(=O)C2(CCCC2)NC(=O)[C@H](COCc2cncc(F)c2)N(C)C(=O)[C@H](CCc2ccc(C(F)(F)F)c(Cl)c2)NC(=O)CN(C)C(=O)[C@H](CC2CCCCC2)N(C)C(=O)CN(C)C(=O)CN(C)C1=O` [Compound 950] ([NMeL]I[Sar][Sar][NMeCha][Sar][hPhe(3-Cl-4-CF3)][NMeS](X113)[Ac5c][NMeChg][NMeD]-Piperidide; lactam N-11), the IC50 was > 500 nM.
As for `CC[C@H](C)[C@@H]1NC(=O)[C@H](C)N(C)C(=O)C[C@@H](C(=O)N2CCCCC2)N(C)C(=O)[C@H](C2CCCCC2)N(C)C(=O)C2(CCCC2)NC(=O)[C@@H]2CCCN2C(=O)[C@H](CCc2cccc(Cl)c2)NC(=O)CN(C)C(=O)[C@H](CC2CCCCC2)N(C)C(=O)CN(C)C(=O)CN(C)C1=O` [Compound 954] ([NMeA]I[Sar][Sar][NMeCha][Sar][hPhe(3-Cl)]P[Ac5c][NMeChg][NMeD]-Piperidide; lactam N-11), the IC50 was > 500 nM.
As to `CC[C@H](C)[C@@H]1NC(=O)[C@H](CC(C)C)N(C)C(=O)C[C@@H](COCC(=O)NC(C)(C)C)NC(=O)[C@H](C(C)C)N(C)C(=O)C2(CCCC2)NC(=O)[C@@H]2CCCN2C(=O)[C@H](CCc2ccc(C(F)(F)F)c(Cl)c2)NC(=O)CN(C)C(=O)[C@H](CC2CCCCC2)N(C)C(=O)CN(C)C(=O)CN(C)C1=O` [Compound 955] ([NMeL]I[Sar][Sar][NMeCha][Sar][hPhe(3-Cl-4-CF3)]P[Ac5c][NMeV]; linker N-C via X37), the IC50 was > 500 nM.
With `CC[C@H](C)[C@@H]1NC(=O)[C@H](CC(C)C)N(C)C(=O)C[C@@H](C(=O)N2CCCCC2)N(C)C(=O)[C@H](CC(C)C)NC(=O)C(C)(C)N(C)C(=O)[C@H](CC(C)C)NC(=O)[C@H](CCc2ccc(C(F)(F)F)c(F)c2)NC(=O)CN(C)C(=O)[C@H](CC2CCCCC2)N(C)C(=O)CN(C)C(=O)CN(C)C1=O` [Compound 969] ([NMeL]I[Sar][Sar][NMeCha][Sar][hPhe(3-F,4-CF3)]L[NMeAib]L[NMeD]-Piperidide; lactam N-11), the IC50 was > 500 nM.
With `CC[C@H](C)[C@@H]1NC(=O)[C@H](CC(C)C)N(C)C(=O)C[C@@H](C)NC(=O)[C@H](C(C)C)N(C)C(=O)C2(CCCC2)NC(=O)[C@@H]2CCCN2C(=O)[C@H](CCc2ccc(C(F)(F)F)c(Cl)c2)NC(=O)CN(C)C(=O)[C@H](CC2CCCCC2)N(C)C(=O)CN(C)C(=O)CN(CC(C)C)C1=O` [Compound 970] (cyclo([Ac5c][NMeV][d(β3hA)][NMeL]I[Nleu][Sar][NMeCha][Sar][hPhe(3-Cl-4-CF3)]P)), the IC50 is > 500 nM.
